Assay results: paper PMC9091336, “Functional Characterization of Odorant Binding Protein PyasOBP2 From the Jujube Bud Weevil, Pachyrhinus yasumatsui (Coleoptera: Curculionidae)” (Frontiers in Physiology, 2022)

What was measured:
PyasOBP2 [1] = assay: Fluorescence competitive binding assay with 1-NPN as probe; parameters: species or system Pachyrhinus yasumatsui; details: for IC50 / Ki: PyasOBP2 2 μM, 1-NPN 2 μM; for IC50: ligand 0 to 20 μM, three replicates; for Ki: dissociation constant calculated from IC50 by Ki=IC50/(1+[1-NPN]/K1-NPN); for binding to PyasOBP2 (in words): fluorescence competitive binding, ligand up to 20 μM
Procedure: (§1) Fluorescence competitive binding assays were carried out on an F-2700 fluorescence spectrophotometer (Hitachi, Tokyo, Japan) to determine the binding affinity of PyasOBP2. 1-N-phenyl-naphthylamine (1-NPN) was used as a fluorescent probe ([Pelosi et al., 2006]) with excitation at 337 nm, and the emission spectra were measured from 370 to 550 nm. Based on gas chromatography-mass spectrometry (GC-MS) and previous studies ([Yan et al., 2017]; [Yan et al., 2020]), 38 volatiles derived from Z. jujuba were selected as putative ligands for fluorescence competitive binding assays (Table 2). 1-NPN and all ligands used in binding assays were diluted in methanol to 1 mM stock solutions. To measure the binding affinity of PyasOBP2 with 1-NPN, PyasOBP2 solution (with a final concentration of 2 μM) was titrated with 1-NPN to final concentrations ranging from 2 to 20 μM. In ligand-binding assays, each ligand with a concentration ranging from 0 to 20 μM was added into a mixture of PyasOBP2 (2 μM) and 1-NPN (2 μM), and maximal fluorescence intensities were plotted against ligand concentrations based on three replicates.
The dissociation constant K1-NPN (for PyasOBP2 binding with 1-NPN) was calculated with Scatchard plotting of binding data in the GraphPad Prism 8.0 Software ([Sideris et al., 1992]). The dissociation constant (Ki) of each ligand was calculated with Eq. 3, as described by [Cui et al. (2018)]. The ligand binding affinity to PyasOBP2 was considered as very strong (Ki≤5 μM), strong (5 μM<Ki≤10 μM), moderate (10 μM<Ki≤20 μM) and weak (Ki>20 μM) in this study. Ki=IC50/(1+[1−NPN]/K1−NPN) (3)

[2] = system: adult P. yasumatsui antennae; parameters: method as in Yan et al., 2017; Yan et al., 2020; details: ref Yan et al., 2017, 2020; cited from earlier work
P. yasumatsui adults = system: P. yasumatsui adults; parameters: method as in Yan et al., 2017; Yan et al., 2020; details: volatiles emitted from jujube shoots, ref Yan et al., 2017, 2020; cited from earlier work
PyasOBP2 [3] = assay: Binding of fluorescent probe 1-NPN to PyasOBP2 (titration, Scatchard plot); parameters: species or system Pachyrhinus yasumatsui; details: PyasOBP2 2 μM titrated with 1-NPN 2 to 20 μM, read-out: dissociation constant of PyasOBP2 with 1-NPN
Procedure: as §1, with “To measure the binding affinity of PyasOBP2 with 1-NPN, PyasOBP2 solution (with a final concentration of 2 μM) was titrated with 1-NPN to final concentrations ranging from 2 to 20 μM.” left out
The dissociation constant K1-NPN (for PyasOBP2 binding with 1-NPN) was calculated with Scatchard plotting of binding data in the GraphPad Prism 8.0 Software ([Sideris et al., 1992]). The dissociation constant (Ki) of each ligand was calculated with Eq. 3, as described by [Cui et al. (2018)]. […]

IC50 (PyasOBP2 [1]) | Ki (PyasOBP2 [1]) | SMILES | also measured
7.81 µM | 6.64 µM | CCCCCCCC=O [Octanal] | –
10.5 µM | 8.92 µM | C=CC(C)=CCC=C(C)C [Ocimene] | Ki (PyasOBP2 [1]; listed as ocimene): < 10 µM; EAG response [2]: strong EAG responses; attraction of adults (P. yasumatsui adults): significantly attracted
8.33 µM | 7.08 µM | C=C1C2CCC(C2)C1(C)C (centres unmarked) [Camphene] | –
15.6 µM | 13.2 µM | CCCCCCCCC=O [Nonanal] | Ki (PyasOBP2 [1]; listed as nonanal): < 20 µM; EAG response [2]: strong EAG responses; attraction of adults (P. yasumatsui adults): significantly attracted
> 20 µM | – | CCOC(=O)C(C)CC (centres unmarked) [Ethyl 2-methylbutyrate] | –
> 20 µM | – | CCCCCCCC/C=C\CCCCCCCC(=O)OC [Methyl oleate] | binding to PyasOBP2 (in words) (PyasOBP2 [1]): could not bind
5.42 µM | 4.61 µM | CC(C)=Cc1ccccc1 [2-Methyl-1-phenylpropene] | –
7.54 µM | 6.41 µM | C=CC(C)(O)CCC=C(C)CCC=C(C)C (mixture of isomers) [Nerolidol] | Ki (PyasOBP2 [1]; listed as nerolidol): < 10 µM
> 20 µM | – | CCOC(=O)CC(C)C [Ethyl isovalerate] | –
> 20 µM | – | CC/C=C\CCOC(=O)CC(C)C [cis-3-Hexenyl 3-methylbutanoate] | –
8.06 µM | 6.85 µM | CC/C=C\CCO [cis-3-Hexen-1-ol] | Ki (PyasOBP2 [1]; listed as cis-3-hexen-1-ol): < 10 µM
13 µM | 11 µM | CC(C)C=O [Isobutyraldehyde] | –
10.9 µM | 8.03 µM | CCCCCC=O [Caproaldehyde] | –
15.1 µM | 12.8 µM | CC12CCC(CC1)C(C)(C)O2 [Eucalyptol] | –
> 20 µM | – | C=CC(O)CC (centres unmarked) [1-Penten-3-ol] | –
> 20 µM | – | CC/C=C\CCOC(C)=O [cis-3-Hexenyl acetate] | –
11.6 µM | 9.88 µM | C=CC(C)(O)CCC=C(C)C (centres unmarked) [Linalool] | Ki (PyasOBP2 [1]; listed as linalool): < 10 µM
> 20 µM | – | CC(C)=CCC/C(C)=C/CC/C(C)=C/CC/C=C(\C)CC/C=C(\C)CCC=C(C)C [Squalene] | binding to PyasOBP2 (in words) (PyasOBP2 [1]): could not bind
3.55 µM | 3.02 µM | CCCC(=O)OCC [Ethyl butyrate] | Ki (PyasOBP2 [1]; listed as ethyl butyrate): < 5 µM
10.8 µM | 9.18 µM | CC1=CCC2CC1C2(C)C (stereo not drawn) [α-Pinene] | –
11.9 µM | 10.1 µM | CC/C=C\CCOC(=O)C(C)CC (stereo not drawn) [2-Methylbutyric Acid cis-3-Hexen-1-yl Ester] | –
8.93 µM | 6.6 µM | CCC/C=C/CO [trans-2-Hexen-1-ol] | Ki (PyasOBP2 [1]; listed as trans-2-hexen-1-ol): < 10 µM

Further lines, the molecule ahead of its results:

SMILES | IC50 (PyasOBP2 [1]) | Ki (PyasOBP2 [1]) | also measured
CCCCCCCCCCCC [Dodecane] | > 20 µM | – | binding to PyasOBP2 (in words) (PyasOBP2 [1]): could not bind to PyasOBP2
N#Cc1ccccc1 [Benzonitrile] | > 20 µM | – | binding to PyasOBP2 (in words) (PyasOBP2 [1]): could not bind to PyasOBP2
c1ccc(Nc2cccc3ccccc23)cc1 [1-NPN, 1-N-phenyl-naphthylamine] | – | – | Kd (PyasOBP2 [3]): 5.66 µM
OCc1ccccc1 [Benzyl alcohol] | 16.2 µM | 12 µM | –
CC1=CC[C@H](C(C)C)C=C1 [α-Phellandrene] | 10.7 µM | 9.12 µM | –
C=C/C(C)=C/C/C=C(\C)CCC=C(C)C [α-farnesene] | – | – | attraction of adults (P. yasumatsui adults): significantly attracted
C=C(C)[C@H]1CC=C(C)CC1 [Dipentene] | 7.05 µM | 5.99 µM | Ki (PyasOBP2 [1]; listed as dipentene): < 5 µM
CCC/C=C/C=O [trans-2-Hexen-1-al] | 15.8 µM | 13.4 µM | –
CCCCCCC=O [Heptaldehyde] | 15.4 µM | 11.4 µM | –
C=CC(=C)CCC=C(C)C [Myrcene] | 11.8 µM | 8.92 µM | –
CCCCC(=O)OCC [Ethyl valerate] | > 20 µM | – | –
CC1=CCC2C(C1)C2(C)C (centres unmarked) [3-Carene] | > 20 µM | > 20 µM | –
C=CCc1ccc(O)c(OC)c1 [Eugenol] | > 20 µM | – | binding to PyasOBP2 (in words) (PyasOBP2 [1]): could not bind to PyasOBP2
CC(C)=CCCC(C)=CC#N [Geranyl nitrile] | > 20 µM | – | binding to PyasOBP2 (in words) (PyasOBP2 [1]): could not bind to PyasOBP2
CCCCOC(=O)c1ccccc1C(=O)OCCCC [Dibutyl phthalate] | 10.5 µM | 7.73 µM | –
CCCCOC(C)=O [Butyl acetate] | > 20 µM | > 20 µM | –
CCCCCCCCCCCCCCCC(=O)OC [Methyl palmitate] | > 20 µM | > 20 µM | binding to PyasOBP2 (in words) (PyasOBP2 [1]): could not bind; EAG response [2]: strong EAG responses; attraction of adults (P. yasumatsui adults): significantly attracted
C=C1CC/C=C(\C)CC[C@@H]2[C@@H]1CC2(C)C [β-Caryophyllene] | > 20 µM | – | –
